Results reported in patent US9744160B2, “Pharmaceutical compositions comprising sulbactam and beta-lactamase inhibitor” (WOCKHARDT LIMITED, priority 2011, dated 2017).

System: A. baumanii 13305
Assay: MIC by agar dilution (CLSI)
Type: cell-based
Experimental: In a typical study, overnight grown bacterial cultures were diluted appropriately and inoculated on the agar media containing doubling dilutions of composition or pharmaceutically active ingredients disclosed herein. Observation for growth or no growth was performed after 16-20 hours of incubation at 35±2° C. in ambient air. The overall procedure was performed as per Clinical and Laboratory Standards Institute (CLSI) recommendations (Clinical and Laboratory Standards Institute (CLSI), performance Standards for Antimicrobial Susceptibility Testing, 20th Informational Supplement, M 100-S20, Volume 30, No. 1, 2010).

MIC of cefepime in presence of Sulbactam (4 to 8 mcg/ml): 4 µg/mL
SMILES: CO/N=C(\C(=O)N[C@@H]1C(=O)N2C(C(=O)[O-])=C(C[N+]3(C)CCCC3)CS[C@H]12)c1csc(N)n1 [Cefepime]
